Reference: ChEMBL document CHEMBL1201862, “PubChem BioAssay data set” (2004)
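Grown in 96-well plates, cells were treated for 48 hours with each compound at five concentrations. Insufficient inhibition: endpoint recorded as highest concentration tested. Here, GI50 denotes the concentration required for 50% inhibition of growth.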 Calls of active or inactive are those of the source. Cut-off read from the data, not from the text of the source: active = GI50 up to about 1.1 µM and inactive = higher.

Columns and labels:
Assay in all cases: NCI tumour cell line growth inhibition, 48 h
SF-295 = tested on: SF-295
ACHN = tested on: ACHN
DMS-114 = tested on: DMS-114
HL-60 = tested on: HL-60
SK-MEL-5 = tested on: SK-MEL-5
U-251 = tested on: U-251
DMS-273 = tested on: DMS-273
KM12 = tested on: KM12
SF-539 = tested on: SF-539
SK-OV-3 = tested on: SK-OV-3
COLO 205 = tested on: COLO 205
NCI-H522 = tested on: NCI-H522
SNB-19 = tested on: SNB-19
EKVX = tested on: EKVX
SK-MEL-2 = tested on: SK-MEL-2
UO-31 = tested on: UO-31
CCRF-CEM = tested on: CCRF-CEM
DLD-1 = tested on: DLD-1
SNB-75 = tested on: SNB-75
CAKI-1 = tested on: CAKI-1
K562 = tested on: K562
NCI-H226 = tested on: NCI-H226
HCT-116 = tested on: HCT-116
TK-10 = tested on: TK-10
HOP-62 = tested on: HOP-62
786-0 = tested on: 786-0
NCI-H23 = tested on: NCI-H23
OVCAR-3 = tested on: OVCAR-3
HCT-15 = tested on: HCT-15
RXF 393 = tested on: RXF 393
UACC-257 = tested on: UACC-257
Malme-3M = tested on: Malme-3M
HCC 2998 = tested on: HCC 2998
SN12C = tested on: SN12C
SF-268 = tested on: SF-268
SW-620 = tested on: SW-620
LXFL 529 = tested on: LXFL 529
OVCAR-5 = tested on: OVCAR-5
KM-20L2 = tested on: KM-20L2
RPMI-8226 = tested on: RPMI-8226
HT-29 = tested on: HT-29
A498 = tested on: A498
M14 = tested on: M14
A549 = tested on: A549
SK-MEL-28 = tested on: SK-MEL-28
UACC-62 = tested on: UACC-62
LOX IMVI = tested on: LOX IMVI
OVCAR-8 = tested on: OVCAR-8
OVCAR-4 = tested on: OVCAR-4
HOP-92 = tested on: HOP-92
IGROV-1 = tested on: IGROV-1
M19-MEL = tested on: M19-MEL
SNB-78 = tested on: SNB-78

CCOc1ccccc1N1C(=O)C(=O)C(c2nc3ccccc3o2)/C(=N\N)C1=O (stereo not drawn)
GI50 (SF-295): > 100 µM (inactive) | GI50 (ACHN): 88.1 µM (inactive) | GI50 (DMS-114): > 100 µM (inactive) | GI50 (HL-60): > 100 µM (inactive) | GI50 (SK-MEL-5): > 100 µM (inactive) | GI50 (U-251): > 100 µM (inactive) | GI50 (DMS-273): > 100 µM (inactive) | GI50 (KM12): > 100 µM (inactive) | GI50 (SF-539): > 100 µM (inactive) | GI50 (SK-OV-3): > 100 µM (inactive) | GI50 (COLO 205): > 100 µM (inactive) | GI50 (NCI-H522): > 100 µM (inactive) | GI50 (SNB-19): > 100 µM (inactive) | GI50 (EKVX): > 100 µM (inactive) | GI50 (SK-MEL-2): > 100 µM (inactive) | GI50 (UO-31): 31.2 µM (inactive) | GI50 (CCRF-CEM): > 100 µM (inactive) | GI50 (DLD-1): > 100 µM (inactive) | GI50 (SNB-75): 27.7 µM (inactive) | GI50 (CAKI-1): > 100 µM (inactive) | GI50 (K562): > 100 µM (inactive) | GI50 (NCI-H226): > 100 µM (inactive) | GI50 (HCT-116): 79.8 µM (inactive) | GI50 (TK-10): 56.5 µM (inactive) | GI50 (HOP-62): > 100 µM (inactive) | GI50 (786-0): > 100 µM (inactive) | GI50 (NCI-H23): > 100 µM (inactive) | GI50 (OVCAR-3): > 100 µM (inactive) | GI50 (HCT-15): > 100 µM | GI50 (RXF 393): > 100 µM (inactive) | GI50 (UACC-257): 49.9 µM (inactive) | GI50 (Malme-3M): > 100 µM (inactive) | GI50 (HCC 2998): > 100 µM (inactive) | GI50 (SN12C): > 100 µM (inactive) | GI50 (SF-268): 55 µM (inactive) | GI50 (SW-620): > 100 µM (inactive) | GI50 (LXFL 529): > 100 µM (inactive) | GI50 (OVCAR-5): > 100 µM (inactive) | GI50 (KM-20L2): > 100 µM (inactive) | GI50 (RPMI-8226): > 100 µM (inactive) | GI50 (HT-29): 70.5 µM (inactive) | GI50 (A498): > 100 µM (inactive) | GI50 (M14): > 100 µM (inactive) | GI50 (A549): > 100 µM (inactive) | GI50 (SK-MEL-28): > 100 µM (inactive) | GI50 (UACC-62): > 100 µM (inactive) | GI50 (LOX IMVI): > 100 µM (inactive) | GI50 (OVCAR-8): > 100 µM (inactive) | GI50 (OVCAR-4): 27.1 µM (inactive) | GI50 (HOP-92): > 100 µM (inactive) | GI50 (IGROV-1): > 100 µM (inactive) | GI50 (M19-MEL): > 100 µM (inactive) | GI50 (SNB-78): > 100 µM (inactive)
